Literature values as cited in US8431374B2, “Methods for the economical production of biofuel from biomass” (Gevo, Inc., priority 2007, dated 2013).

Tests used:
[1] = logarithm of the octanol:water partition coefficient
Klyveromyces marxianus = conditions: in binary combination (Ballesteros 2004)

In the case of `CCCCCCCCO` [1-octanol], the solubility limit (octanol, two-phase system (Chen, Q. 1995)) is listed as under 1100 µg/mL.
For `CCC(C)O` (centres unmarked) [2-butanol], the “log P” value [1] is listed as 0.6.
In the case of `CC(C)O` [2-propanol], the Solubility in water (20° C., given in words) is listed as “miscible”.
For `COc1cc(C=O)ccc1O` [Vanillin, vanillin], the “reduction in both cell growth and fermentation” value (Klyveromyces marxianus) is listed as 90%.
In the case of `CC(C)CO` [isobutanol], the “log P” value [1] is given as 0.79.
